Key:
Experiment in all cases: relative viability (nuclei count vs DMSO), 5 days (fraction); higher = more cells survive
LXF-289 = system: LXF-289
In short: (§1)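 Dosing by pin tool came one day after lung cancer cell lines were seeded in 1536-well plates, using either one drug or a fixed anchor-drug dose plus five library-drug doses (not always all listed) in √10 steps. After 5 days, nuclei were counted on 4× images. Relative viability is treated-well nuclei count divided by vehicle-well nuclei count, and values are medians of duplicate plates.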

LU99A = system: LU99A
In short: as §1

RERF-LC-KJ = system: RERF-LC-KJ
In short: as §1

HCC-827 = system: HCC-827
In short: as §1

NCI-H1993 = system: NCI-H1993
In short: as §1

201T = system: 201T
In short: as §1

NCI-H1944 = system: NCI-H1944
In short: as §1

BEN = system: BEN
In short: as §1

LC-2-ad = system: LC-2-ad
In short: as §1

NCI-H596 = system: NCI-H596
In short: as §1

HCC-78 = system: HCC-78
In short: as §1

NCI-H1755 = system: NCI-H1755
In short: as §1

HCC-15 = system: HCC-15
In short: as §1

HARA = system: HARA
In short: as §1

HCC-366 = system: HCC-366
In short: as §1

NCI-H1734 = system: NCI-H1734
In short: as §1

NCI-H3122 = system: NCI-H3122
In short: as §1

NCI-H1975 = system: NCI-H1975
In short: as §1

EKVX = system: EKVX
In short: as §1

Cc1cnc(-c2cnc(NCCNc3ccc(C#N)cn3)nc2-c2ccc(Cl)cc2Cl)[nH]1 + NC(=O)Nc1cc(-c2cccc(F)c2)sc1C(=O)N[C@H]1CCCNC1 [AZD7762] (partner 0.2 µM)
relative viability (LXF-289; first compound 0.08 µM): 1.16 | relative viability (LXF-289; first compound 0.253 µM): 1.05 | relative viability (LXF-289; first compound 0.8 µM): 1.18 | relative viability (LXF-289; first compound 2.53 µM): 1.19 | relative viability (LU99A; first compound 0.08 µM): 0.393 | relative viability (LU99A; first compound 0.253 µM): 0.368 | relative viability (LU99A; first compound 0.8 µM): 0.333 | relative viability (LU99A; first compound 2.53 µM): 0.389 | relative viability (RERF-LC-KJ; first compound 0.08 µM): 1.08 | relative viability (RERF-LC-KJ; first compound 0.253 µM): 0.801 | relative viability (RERF-LC-KJ; first compound 0.8 µM): 0.881 | relative viability (RERF-LC-KJ; first compound 2.53 µM): 0.985 | relative viability (HCC-827; first compound 0.08 µM): 0.242 | relative viability (HCC-827; first compound 0.253 µM): 0.169 | relative viability (HCC-827; first compound 0.8 µM): 0.193 | relative viability (HCC-827; first compound 2.53 µM): 0.171 | relative viability (NCI-H1993; first compound 0.08 µM): 0.918 | relative viability (NCI-H1993; first compound 0.253 µM): 0.683 | relative viability (NCI-H1993; first compound 0.8 µM): 0.703 | relative viability (NCI-H1993; first compound 2.53 µM): 0.9 | relative viability (201T; first compound 0.08 µM): 0.702 | relative viability (201T; first compound 0.8 µM): 0.567 | relative viability (201T; first compound 2.53 µM): 0.619 | relative viability (NCI-H1944; first compound 0.08 µM): 0.668 | relative viability (NCI-H1944; first compound 0.8 µM): 0.488 | relative viability (NCI-H1944; first compound 2.53 µM): 0.521 | relative viability (BEN; first compound 0.08 µM): 0.714 | relative viability (BEN; first compound 0.253 µM): 0.699 | relative viability (BEN; first compound 0.8 µM): 0.726 | relative viability (BEN; first compound 2.53 µM): 0.736 | relative viability (LC-2-ad; first compound 0.08 µM): 0.851 | relative viability (LC-2-ad; first compound 0.8 µM): 0.687 | relative viability (LC-2-ad; first compound 2.53 µM): 0.841 | relative viability (NCI-H596; first compound 0.08 µM): 1.3 | relative viability (NCI-H596; first compound 0.253 µM): 0.974 | relative viability (NCI-H596; first compound 0.8 µM): 1.09 | relative viability (NCI-H596; first compound 2.53 µM): 1.01 | relative viability (HCC-78; first compound 0.08 µM): 0.582 | relative viability (HCC-78; first compound 0.253 µM): 0.582 | relative viability (HCC-78; first compound 0.8 µM): 0.604 | relative viability (HCC-78; first compound 2.53 µM): 0.606 | relative viability (NCI-H1755; first compound 0.08 µM): 0.459 | relative viability (NCI-H1755; first compound 0.253 µM): 0.445 | relative viability (NCI-H1755; first compound 0.8 µM): 0.404 | relative viability (NCI-H1755; first compound 2.53 µM): 0.443 | relative viability (HCC-15; first compound 0.08 µM): 1.17 | relative viability (HCC-15; first compound 0.253 µM): 0.968 | relative viability (HCC-15; first compound 0.8 µM): 1.2 | relative viability (HCC-15; first compound 2.53 µM): 1.13 | relative viability (HARA; first compound 0.08 µM): 0.297 | relative viability (HARA; first compound 0.253 µM): 0.191 | relative viability (HARA; first compound 0.8 µM): 0.37 | relative viability (HARA; first compound 2.53 µM): 1 | relative viability (HCC-366; first compound 0.08 µM): 0.284 | relative viability (HCC-366; first compound 0.253 µM): 0.202 | relative viability (HCC-366; first compound 0.8 µM): 0.197 | relative viability (HCC-366; first compound 2.53 µM): 0.0746 | relative viability (NCI-H1734; first compound 0.08 µM): 0.513 | relative viability (NCI-H1734; first compound 0.253 µM): 0.522 | relative viability (NCI-H1734; first compound 0.8 µM): 0.543 | relative viability (NCI-H1734; first compound 2.53 µM): 0.459 | relative viability (NCI-H3122; first compound 0.08 µM): 0.995 | relative viability (NCI-H3122; first compound 0.8 µM): 1.03 | relative viability (NCI-H3122; first compound 2.53 µM): 0.98 | relative viability (NCI-H1975; first compound 0.08 µM): 0.818 | relative viability (NCI-H1975; first compound 0.253 µM): 0.583 | relative viability (NCI-H1975; first compound 0.8 µM): 0.575 | relative viability (NCI-H1975; first compound 2.53 µM): 0.506 | relative viability (EKVX; first compound 0.08 µM): 0.731 | relative viability (EKVX; first compound 0.253 µM): 0.698 | relative viability (EKVX; first compound 0.8 µM): 0.588 | relative viability (EKVX; first compound 2.53 µM): 0.655

Source: the supplement of paper PMC10307832
